Assay results reported in patent publication US20110105523A1, “BIFEPRUNOX DERIVATIVES” (priority 2008, published 2011).

Tests used:
[1] = molecular target: T1, human dopamine D2L receptor (Homo sapiens, UniProt P14416); assay: Receptor binding, displacement of [3H]-spiperone on CHO cell membranes; conditions: [3H]-spiperone displacement, recombinant human D2L in CHO membranes; s.e.m. in brackets; read-out: pKi value mean ± s.e.m. (converted)
T1 construct: host or cells: CHO-K1
Experimental: The potency of 3′-hydroxy-bifeprunox, 4′-hydroxy-bifeprunox, 3′-sulfate-bifeprunox, 4′-sulfate-bifeprunox and, for comparison, bifeprunox as a ligand on the human dopamine D2L receptor was investigated using a receptor binding assay and determination of functional activity was investigated using a cAMP assay. All compounds were dissolved in DMSO.
The binding of the compounds of the invention to the human D2L receptor was performed using displacement of radioactive-labeled [^3H]-spiperone binding on membranes prepared from Chinese hamster ovary (CHO) cells expressing the recombinant human D2L receptor.
Human dopamine D2L receptors were cloned in CHO-K1 cells and obtained from Dr. D. Grandy, Vollum Institute, Portland, Oreg., USA.
The binding assay has been carried out using [^3H]-spiperone as ligand (see Eur. J. Pharmacol. 46:377-381, 1977). The labeled compound was incubated with or without the test compound, with a preparation from cloned CHO cells carrying the human dopamine D2L receptor. Separation of bound and free ligand was performed by filtration over glassfiber-filters. After two washings, the bound-fraction remained on the filter. Radioactivity trapped on the filter was measured by scintillation counting. Results are expressed as pKi (negative logarithm of the inhibition constant Ki which is calculated form the IC50).

[2] = molecular target: T1, human dopamine D2L receptor; assay: Adenylate cyclase activity (cAMP assay), inhibition of forskolin-stimulated cAMP accumulation in CHO cells; assay type: cell-based; conditions: for Conversion of cAMP, % of control (mean (±s.e.m.)): control = forskolin-stimulated cAMP accumulation; for EC50: inhibition of forskolin-induced cAMP accumulation, D2L agonism, read-out: pEC50 mean (±s.e.m.) (converted)
Experimental: All compounds were dissolved in DMSO.
For incubation with test compounds (concentrations 10^−6-10^−10M), confluent cultures grown in 24 wells plates were used. Each condition or substance was routinely tested in quadruplicate. Cells were loaded with 1 μCi [^3H]-adenine in 0.5 ml medium/well. After 2 hours, cultures were washed with 0.5 ml PBS containing […] IBMX and forskolin with or without test compound. After aspiration the reaction was stopped with 1 ml trichloroacetic acid 5% (w/v). […] The extract was passed over Dowex (50W-4 200-400 mesh) and aluminiumoxide columns, eluted with water and 0.1M imidazole (pH=7.5). Eluates were mixed with 7 ml of Insta-gel and radioactivity was counted with a scintillation counter. The conversion of the cAMP fraction as compared to combined radioactivity in both cAMP and ATP fractions, and basal activity was subtracted to correct for spontaneous activity.
Dopamine D2L: reference compound: quinpirole; incubation time: 20 min.
Subsequently, the mean of four observations was taken as an estimate for drug-induced, receptor-mediated effects at specified messenger accumulation, expressed as percentage of control values (forskolin-stimulated cAMP accumulation).
By using the non-linear curve-fitting program XL-FIT mean values were plotted against drug concentration (in molar) and sigmoid curve (four parameter logistic curve) was constructed. The maximal forskolin-induced stimulated conversion was taken as maximum value and the maximal inhibition as minimum and these values were fixed during the fitting process.

T1 sequence (P14416 whole entry): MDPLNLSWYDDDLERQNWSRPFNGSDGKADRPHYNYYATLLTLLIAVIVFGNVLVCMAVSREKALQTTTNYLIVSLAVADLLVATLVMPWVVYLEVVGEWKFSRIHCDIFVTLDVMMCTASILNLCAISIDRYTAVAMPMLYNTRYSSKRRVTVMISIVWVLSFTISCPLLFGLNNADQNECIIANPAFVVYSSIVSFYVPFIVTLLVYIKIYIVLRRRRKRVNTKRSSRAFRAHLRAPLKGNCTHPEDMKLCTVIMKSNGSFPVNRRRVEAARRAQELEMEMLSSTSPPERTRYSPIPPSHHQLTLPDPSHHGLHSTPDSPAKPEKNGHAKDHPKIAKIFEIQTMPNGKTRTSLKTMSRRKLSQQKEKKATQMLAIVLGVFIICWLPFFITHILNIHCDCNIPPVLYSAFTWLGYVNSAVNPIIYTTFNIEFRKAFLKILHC

Row | SMILES | Ki [1] [nM] | PS: mean % stimulation (agonism) at 1 μM [2] [%] | Conversion of cAMP, % of control (mean (±s.e.m.)) ([2]; 10^−6M test compound) | Conversion of cAMP, % of control (mean (±s.e.m.)) ([2]; 10^−7M test compound) | Conversion of cAMP, % of control (mean (±s.e.m.)) ([2]; 10^−8M test compound) | Conversion of cAMP, % of control (mean (±s.e.m.)) ([2]; 10^−9M test compound) | Conversion of cAMP, % of control (mean (±s.e.m.)) ([2]; 10^−10M test compound) | EC50 [2] [nM]
1 | O=c1[nH]c2cccc(N3CCN(Cc4cccc(-c5ccc(OS(=O)(=O)O)cc5)c4)CC3)c2o1 [4′-sulfate, 7-[4-(4′-sulfooxy[1,1′-biphenyl]-3-ylmethyl)-1-piperazinyl]-2(3H)-benzoxazolone] | 6.31 | 49 | 51 (16) % of control | 63 (14) % of control | 65 (13) % of control | 72 (13) % of control | 85 (9) % of control | 0.631
2 | O=c1[nH]c2cccc(N3CCN(Cc4cccc(-c5ccc(O)cc5)c4)CC3)c2o1 [4′-OH, 7-[4-(4′-hydroxy[1,1′-biphenyl]-3-ylmethyl)-1-piperazinyl]-2(3H)-benzoxazolone] | 12.6 | 55 | 45 (4) % of control | 50 (2) % of control | 58 (4) % of control | 59 (3) % of control | 90 (9) % of control | 0.2
3 | O=c1[nH]c2cccc(N3CCN(Cc4cccc(-c5cccc(O)c5)c4)CC3)c2o1 [3′-OH, 7-[4-(3′-hydroxy[1,1′-biphenyl]-3-ylmethyl)-1-piperazinyl]-2(3H)-benzoxazolone] | 12.6 | 49 | 51 (10) % of control | 56 (8) % of control | 63 (7) % of control | 70 (6) % of control | 84 (4) % of control | 0.794
4 | O=c1[nH]c2cccc(N3CCN(Cc4cccc(-c5cccc(OS(=O)(=O)O)c5)c4)CC3)c2o1 [3′-sulfate, 7-[4-(3′-sulfooxy[1,1′-biphenyl]-3-ylmethyl)-1-piperazinyl]-2(3H)-benzoxazolone] | 12.6 | 51 | 49 (6) % of control | 66 (12) % of control | 79 (6) % of control | 93 (9) % of control | 94 (5) % of control | 12.6
5 | O=c1[nH]c2cccc(N3CCN(Cc4cccc(-c5ccccc5)c4)CC3)c2o1 [Bifeprunox, 7-[4-([1,1′-biphenyl]-3-ylmethyl1)-1-piperazinyl]-2(3H)-benzoxazolone monomethanesulphonate] | 39.8 | 31 | 69 (10) % of control | 69 (11) % of control | 84 (12) % of control | 94 (13) % of control | 95 (15) % of control | 6.31
